We go through two compounds from patent US20040102469A1, “Method for reducing the mortality rate” (Boehringer Ingelheim Pharma GmbH & Co. KG, priority 2002, published 2004).

In assay [1] the test system is people with lung diseases, especially COPD. Nature of the assay: mortality from respiratory disease in people with lung diseases regularly self-administering tiotropium through the HANDIHALER inhalation device. The class given is in vivo. Conditions: regular self-administration by inhalation via HANDIHALER; compared with a population with similar characteristics not treated with tiotropium. An excerpt: This is evidence by the number of people with lung diseases, especially COPD, who die from respiratory disease in a given prolonged period of time when regularly self-administering tiotropium through the HANDIHALER® inhalation device; the comparison being a population with similar characteristics not treated with tiotropium.

The conditions of assay [2]: five-year study; cited from earlier work.

For the compound `C[N+]1(C)C2C[C@H](OC(=O)C(O)(c3cccs3)c3cccs3)CC1[C@H]1OC21` (stereo partly drawn) [tiotropium, (1α,2β,4β,5α,7β)-7-[(hydroxydi-2-thienylacetyl)oxy]-9,9-dimethyl-3-oxa-9-azoniatricyclo[3.3.1.0^2,4]nonane bromide], the “reduction of the mortality rate (number of people who die from respiratory disease in a given prolonged period of time)” value in assay [1] is listed as “suitable in the reduction of the mortality rate”. As to `CC(C)[N+]1(C)[C@@H]2CC[C@H]1CC(OC(=O)C(CO)c1ccccc1)C2.[Br-]` (some centres unmarked) [ipratropium bromide], in assay [2], the influence on mortality result is “did not show any influence on mortality”.
